Consider six compounds from BindingDB's records for doi:10.1002/cbic.201000413 (The University of Edinburgh, 2011).

Where “and” joins values, the source holds several entries; their conditions need not be identical. Equal values may be shown once.

Experiment [1] deals with T1, Peptidyl-prolyl cis-trans isomerase A (Homo sapiens, UniProt P62937). The experiment is described as follows: ESI-MS Assay. The text has this: Electrospray mass spectrometry assay is a immunophilin-ligand binding assay which allows us to rapidly probe the affinity of potential inhibitors for CypA which rely on the use of soft-ESI conditions to preserve noncovalent interactions between protein and ligand.
T1 sequence (P62937 whole entry): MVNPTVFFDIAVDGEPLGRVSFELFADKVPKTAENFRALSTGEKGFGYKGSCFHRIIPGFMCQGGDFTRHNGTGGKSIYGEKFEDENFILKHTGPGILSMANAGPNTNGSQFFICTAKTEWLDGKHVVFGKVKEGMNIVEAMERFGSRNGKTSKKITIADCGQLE

In experiment [2] the target is T1, Peptidyl-prolyl cis-trans isomerase A. The experiment in a line: Fluorescence Assay. The source says: The promising ligand from the results obtained from ESI-MS assay are subjected to fluorescence in vitro assay. The fluorescence assay takes advantage of the presence of a single tryptophan residue (Trp121) located close to the active site of CypA.
Experiment [3] shares this target. The experiment is described as follows: PPIase Assay. The text has this: The promising ligand from the results obtained from ESI-MS assay are subjected to PPIase in vitro assay. The PPIase assay assesses the abil9ity of ligands to inhibit the PPIase activity of CypA.

Regarding `COC(=O)[C@H](CCCCNC(=O)OCc1ccccc1)C1C(=O)CC2C1=CC(=O)CC2(C)C` (some centres undefined) [Cyclophilin Inhibitor, 3a], the Kd in experiment [1] stood at 128 µM; in experiment [2], 22.8 µM. Further, the Ki in experiment [3] is more than 100 µM.
On the same counts, the results for `COC(=O)[C@H](CCCN=C(N)N[N+](=O)[O-])C1C(=O)CC2C1=CC(=O)CC2(C)C` (some centres undefined) [Cyclophilin Inhibitor, 3c] are 31.9 µM, 29.6 µM and more than 100 µM.
In experiment [1], `COC(=O)[C@H](CCCCNC(C)=O)C1C(=O)CC2C1=CC(=O)CC2(C)C` (some centres undefined) [Cyclophilin Inhibitor, 3d] yielded a Kd of 85.1 µM. In experiment [3], this compound displayed a Ki of more than 100 µM.
On to `COC(=O)[C@H](CCCCNS(=O)(=O)c1cccc2c(N(C)C)cccc12)C1C(=O)CC2C1=CC(=O)CC2(C)C` (some centres undefined) [Cyclophilin Inhibitor, 3e], for which the results for the Kd in experiment [1] and in experiment [2] were 113 µM and 21.9 µM, respectively. Further, in experiment [3], the Ki amounted to 207 µM.
`COC(=O)[C@H](CCCCNS(=O)(=O)c1cccc2c(N(C)C)cccc12)C1C(=O)C[C@@H]2C1=CC(=O)CC2(C)C` (some centres undefined) [Cyclophilin Inhibitor, 3f] gave a Kd in experiment [1] of 133 µM.
`COC(=O)[C@H](CCCCN)C1C(=O)CC2C1=CC(=O)CC2(C)C` (some centres undefined) [Cyclophilin Inhibitor, 15]: the Kd in experiment [1] was 72.6 µM; in experiment [2] it was 15.9 µM and > 50 µM.
